According to paper PMC9953701 (Biomedicines, 2023):
≈ marks a conversion by molar mass, not a printed value. Like-named read-outs stand apart in the source and are kept apart here. Positions of bridges follow the written chain, without caps; N, C: chain ends. Residues, ends and D or L forms follow the SMILES beside them.

Assays:
[1] = system: Salmonella enterica serovar Typhimurium DA6192 wild type and LL-37-resistant mutants (waaY, phoP); assay: MIC against LL-37-resistant strains in buffer conditions; assay type: cell-based; set-up: unit not given here; settings: 20 mM sodium phosphate buffer with 0.1% TSB, 16 to 20 h, 37 °C
Description: (§1) The LL-37 resistant mutants (DA22427 and DA23307) used in this study were derived from Salmonella enterica serovar Typhimurium DA6192, wild-type and cyclotides-resistant mutants (DA54114 and DA57107) were derived from E. coli MG1655 (wild type) and were kindly provided by Department of Medical Biochemistry and Microbiology, Uppsala University.
(§2) MIC measurements were performed in 20 mM sodium phosphate buffer (PBS), supplemented with 0.1% TSB in 96-well plates (round bottom, Nunc A/S, Roskilde, Denmark) in a total volume of 100 µL. The overnight cultures were diluted 5 × 10^5 CFU/mL in the same medium and 90 µL was transferred into the plates containing 10 µL of 2-fold diluted peptides. […] At least two independent experiments were performed with two technical replicates. In cyclotides, resistant mutant average MIC was reported.

[2] = target: T1, aureolysin from S. aureus (Staphylococcus aureus, UniProt P81177); assay: Stability in the presence of the protease aureolysin; assay type: in vitro ADME; settings: peptide:enzyme 200:1, 37 °C, RP-HPLC-MS
T1 construct: purchased
Description: Peptide stability was also assayed in commercially available Gram-positive, S. aureus protease, aureolysin. […] All the samples were then incubated at 37 °C at different incubation times. The reaction was quenched by acidifying with 5 µL of 0.1% formic acid. The samples were analyzed on MS coupled to RP-HPLC.

[3] = Liposome leakage assay (carboxyfluorescein efflux); settings: E. coli lipid liposomes versus POPC/cholesterol liposomes, 45 min, 37 °C
Description: The liposome leakage assay was performed as described previously. In brief, the following lipids/lipid mixture was used: Escherichia coli polar lipid extract or 1-palmitoyl-2-oleoyl-sn-glycerol-3-phosphocoline1-palmitoyl-2-oleoyl-sn-glycerol (POPC, both from Avanti Polar Lipids, Alabaster, US-AL) and cholesterol (Sigma Aldrich). The lipid bilayers were formed on round-bottom flask walls by dissolving lipids in chloroform was evaporated under a flow of N2 and the lipid bilayer was placed in a vacuum overnight. Lipid bilayers were re-suspended in an aqueous solution of 100 mM 5(6)-carboxyfluorescein in 10 mM Tris buffer. […] Membrane permeability was measured by monitoring carboxyfluorescein efflux from the liposomes to the external low-concentration environment, resulting in loss of self-quenching and an increased fluorescence signal with excitation and emission wavelengths of 492 and 517 nm, respectively. […] The effect on liposome permeability for each peptide concentration was monitored for 45 min, at which point leakage had largely subsided. […] The EC50 values are (when applicable) calculated using sigmoidal dose–response curves, with the leakage percentage (0–100 constraints) as a function of the peptide concentration (log10), using GraphPad Prism.

[4] = system: E. coli MG1655 wild type and cyclotides-resistant mutants; assay: MIC against cyclotide-resistant strains in buffer conditions; assay type: cell-based, Escherichia coli; set-up: unit not given here
Description: as §1, §2

[5] = system: Candida albicans ATCC 90028; assay type: cell-based; settings: C. albicans; Control: two-step microdilution assay in Tris buffer 10 mM without salts; median of triplicates
Description: (§3) The three bacterial strains—Escherichia coli ATCC 25922, Pseudomonas aeruginosa ATCC 27853, and Staphylococcus aureus ATCC 29213—as well as the fungal strain Candida albicans ATCC 90028 were provided by the Department of Clinical Bacteriology, Lund University Hospital. Bacillus subtilis CCUG 163B^T and Bacillus cereus CCUG 7414^T were obtained from the Department of Molecular Sciences, Swedish University of Agricultural Sciences.
(§4) Antimicrobial activities of the peptides were evaluated using the two-step microdilution assay, which is designed for testing AMPs without activity-inhibiting components. Briefly, bacteria were grown to the mid-logarithmic phase at 37 °C in 3% (w/v) tryptic soy broth (TSB) (Merck KGaA, Darmstadt, Germany). The microbial culture was washed twice by centrifugation and resuspension in 10 mM Tris buffer (pH 7.4 at 37 °C, adjusted by HCl). The microbial suspension was quantified by OD600, diluted, and transferred to 96-well untreated polystyrene microplates prepared with 2-fold serial dilutions of the peptides using 50,000 bacteria per well (all dilutions in Tris buffer). These were incubated for 5 h at 37 °C, after which 5 µL of 20% (w/v) TSB was added to each well and the microplates were re-incubated for an additional 6–12 h (depending on the growth rate of each organism). All MICs presented are the medians from triplicate experiments performed independently.
(§5) A two-step assay was supplemented with a physiological concentration of salts and diluted human serum and the MIC of the peptides was evaluated as in 4.6.

[6] = system: Staphylococcus aureus ATCC 29213; assay type: cell-based; settings: S. aureus; Control: two-step microdilution assay in Tris buffer 10 mM without salts; median of triplicates
Description: as §3, §4, §5

[7] = system: Pseudomonas aeruginosa ATCC 27853; assay type: cell-based; settings: P. aeruginosa; Control: two-step microdilution assay in Tris buffer 10 mM without salts; median of triplicates
Description: as §3, §4, §5

[8] = system: Bacillus cereus CCUG 7414T; assay type: cell-based; settings: CCUG 7414, 24 h
Text: as §3
(§6) The standard broth microdilution assay was utilized to assess the MIC of designed peptides according to the guidelines of the Clinical and Laboratory Standards Institute (CLSI). Briefly, bacteria were grown in unbuffered Mueller–Hinton Broth (MHB, VWR International, Leuven, Belgium) as well as buffered (containing 50 mM NaHCO3) medium to the mid-logarithmic phase and were quantified by OD600. The bacterial suspension was diluted in the same medium to reach a final density of 1 × 10^6 colony-forming unit per milliliter (CFU/mL). A volume of 50 µL of the bacterial suspension was added to 96-well plates containing 50 µL of MHB in the absence (viability control) or the presence of the peptides at different concentrations (0.625–80 µM). […] MIC values were derived from 3 sets of independent experiments with different bacterial cultures.

[9] = system: Bacillus subtilis CCUG 163BT; assay type: cell-based; settings: CCUG 163, 24 h
Text: as §3, §6

[10] = system: Bacillus subtilis CCUG 163BT; assay type: cell-based; settings: CCUG 163, 5 h
Description: as §3, §4

[11] = system: Staphylococcus aureus ATCC 29213; assay type: cell-based; settings: ATCC 29213, 24 h
Text: as §3, §6

[12] = system: Escherichia coli ATCC 25922; assay type: cell-based; settings: ATCC 25922, 24 h
Text: as §3, §6

[13] = system: Pseudomonas aeruginosa ATCC 27853; assay type: cell-based; settings: ATCC 27853, 24 h
Text: as §3, §6

[14] = S. typhimurium phoP LL-37-resistant mutant
[15] = S. typhimurium waaY LL-37-resistant mutant

T1 sequence (P81177 209-509): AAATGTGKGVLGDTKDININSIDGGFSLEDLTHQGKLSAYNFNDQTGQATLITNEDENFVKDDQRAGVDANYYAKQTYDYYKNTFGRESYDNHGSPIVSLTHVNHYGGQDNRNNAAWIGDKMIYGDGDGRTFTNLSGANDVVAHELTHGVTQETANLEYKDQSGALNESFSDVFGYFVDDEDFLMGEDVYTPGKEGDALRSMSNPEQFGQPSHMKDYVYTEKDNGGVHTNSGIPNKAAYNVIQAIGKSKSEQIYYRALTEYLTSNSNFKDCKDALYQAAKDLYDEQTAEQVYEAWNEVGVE

SMILES | MIC ([1]; S. typhimurium WT (DA6192)) | MIC [1, 14] | MIC [1, 15] | time for which the peptide was stable in aureolysin (stable for up to) [2] | bacterial target selectivity relative to LL-37 (factor) [3] | MIC ([4]; E. coli DA54114 cyclotide-resistant mutant, sodium phosphate buffer with 0.1% TSB, average MIC) | MIC ([4]; E. coli DA57107 cyclotide-resistant mutant, sodium phosphate buffer with 0.1% TSB, average MIC) | MIC ([4]; E. coli WT (MG1655), 20 mM sodium phosphate buffer with 0.1% TSB, 16 to 20 h, 37 °C) | MIC [5] | MIC [6] | MIC [7] | MIC [8] | MIC [9] | MIC [10] | MIC [11] | MIC [12] | MIC [13]
CC[C@H](C)[C@@H]1NC(=O)[C@H](CCCNC(=N)N)NC(=O)[C@@H]2CSSC[C@H](NC(=O)[C@H](CCCCN)NC(=O)[C@H]([C@@H](C)CC)NC(=O)[C@H](CCCNC(=N)N)NC(=O)[C@H](CCCCN)NC(=O)[C@H](C(C)C)NC(=O)[C@H]([C@@H](C)CC)NC(=O)[C@H](CCCNC(=N)N)NC(=O)[C@H](CCCCN)NC(=O)CNC(=O)CNC(=O)[C@@H]3CCCN3C(=O)CNC(=O)[C@H](CCCNC(=N)N)NC(=O)[C@H](CC(C)C)NC(=O)[C@H](Cc3ccccc3)NC(=O)[C@H](C)NC(=O)[C@H](CCCCN)NC1=O)C(=O)N[C@@H](Cc1ccccc1)C(=O)N[C@@H](CC(C)C)C(=O)N[C@@H](CCCNC(=N)N)C(=O)NCC(=O)N1CCC[C@H]1C(=O)NCC(=O)NCC(=O)N[C@@H](CCCCN)C(=O)N[C@@H](CCCNC(=N)N)C(=O)N[C@@H]([C@@H](C)CC)C(=O)N[C@@H](C(C)C)C(=O)N2 [cd4-CCPP] (cyclo(CFLRGPGGKRIVCRIKAFLRGPGGKRIVKRIK); disulfide 1-13) | 2.5 | 1.25 | 1.25 | ≥ 8 h | 6 fold | 0.25 | 0.25 | 0.37 | 0.625 µM | 0.625 µM | 0.625 µM | > 40 µM | > 40 µM |  |  |  | 
CC[C@H](C)[C@@H]1NC(=O)[C@H](CCCNC(=N)N)NC(=O)[C@@H]2CSSC[C@H](NC(=O)[C@H](CCCCN)NC(=O)[C@H]([C@@H](C)CC)NC(=O)[C@H](CCCNC(=N)N)NC(=O)[C@H](CCCCN)NC(=O)[C@H](C(C)C)NC(=O)[C@H]([C@@H](C)CC)NC(=O)[C@H](CCCNC(=N)N)NC(=O)[C@H](CCCCN)NC(=O)CNC(=O)CNC(=O)[C@H](C)NC(=O)CNC(=O)[C@H](CCCNC(=N)N)NC(=O)[C@H](CC(C)C)NC(=O)[C@H](Cc3ccccc3)NC(=O)[C@H](C)NC(=O)[C@H](CCCCN)NC1=O)C(=O)N[C@@H](Cc1ccccc1)C(=O)N[C@@H](CC(C)C)C(=O)N[C@@H](CCCNC(=N)N)C(=O)NCC(=O)N[C@@H](C)C(=O)NCC(=O)NCC(=O)N[C@@H](CCCCN)C(=O)N[C@@H](CCCNC(=N)N)C(=O)N[C@@H]([C@@H](C)CC)C(=O)N[C@@H](C(C)C)C(=O)N2 [cd4-CC] (cyclo(CFLRGAGGKRIVCRIKAFLRGAGGKRIVKRIK); disulfide 1-13) | 1.25 | 1.25 | 2.5 |  |  |  |  |  |  |  |  | > 40 µM | > 40 µM | 0.625 µM (≈ 2.19 µg/mL) | >40 µM | 5 µM (≈ 17.5 µg/mL) | 5 µM (≈ 17.5 µg/mL)
